Test [1] concerns cultured human bladder smooth muscle cells. In words: Current clamp recording of resting membrane potential, human cells. It is filed as cell-based. The following applies: resting membrane potential −8.0±2.8 mV before retigabine; n=3. Here is the method: Single cell recordings are performed with a List-Medical EPC-7 patch clamp amplifier (Adams & List Assoc., Westbury, N.Y.). Pipette electrodes had tip resistances of 2–4 MΩ and are filled with the following composition (mM): KCl (126.0), MgCl2.6H2O (4.5), ATP Mg salt (4.0), GTP tris salt (0.3), creatine PO4 (14.0), D-glucose (9.0), EGTA (9.0), HEPES (9.0). The pH is adjusted to 7.4 with KOH. Signals are acquired (3 kHz high frequency cut-off, 12 bit resolution) using a 586-based personal computer.
Cell resting membrane potential (RMP) is measured in current clamp using the above mentioned instrumentation and pipette solutions. For these experiments nystatin is also added to the pipette solution (100 μg/ml) to allow recording through utilization of the perforated patch technique (Korn, et al, 1991). After stable access is achieved, RMP is recorded for a 5 minute control period followed by 5 minute of drug application (0.3 and 1.0 μM). After this time, various antagonists (linopirdine, XE-991) are added to the perfusate and RMP is recorded for an additional 5 minutes. […]
Rat bladder strips were isolated and prepared as previously described (Wojdan, A., Freeden, C., Woods, M., Oshiro, G., Spinelli, W. et al., J Pharmacol ExpTherap 289:1410–1418 (1999)). […] Message for KCNQ subunits was probed using quantitative rtPCR on an ABI PRISM 7700 Sequence Detection System (TAQMAN). […]

In test [2] the test system is isolated rat bladder strips. The test is described as follows: Isolated rat bladder strip contraction. To be noted: Rattus norvegicus, n=4. On the procedure: Male Sprague-Dawley rats (200–400 grams) are euthanized by CO2 inhalation and exsanguination. Their urinary bladders are rapidly removed and placed in […] physiological salt solution (PSS) that contained the following (mM): NaCl (118.4), KCl (5), CaCl2 (2.5), MgSO4 (1.2), KH2PO4 (1.2), NaHCO3 (24.9) and D-glucose (11.1) gassed with O2/CO2 (95% /5%) to achieve a pH of 7.4. The dome of the bladder is isolated from the trigon region and this tissue is then cut into 4–5 mm wide by 10 mm long strips. One end is secured to the bottom of a water jacketed tissue bath and the other to a GRASS isometric force transducer (Grass Instruments, Quincy, Mass.). Tissues are pretensioned (0.25 to 0.5 grams), and after 30 minutes of equilibration are contracted with an additional 15 mM KCl (total of 20 mM) and again allowed to equilibrate until the preparations are contracting steadily. Any of a variety of compounds are administered directly into the tissue baths as sequential concentrations. Transducer signals are digitized (12 bit resolution) and analyzed on-line using a 586-based computer and custom software. The area under the contraction curve (AUC) is used as a measure of contractility since the spontaneous bladder contractions are irregular in amplitude and frequency. A 5-minute AUC value is taken 30 minutes after administration of each compound concentration to the tissue bath.
We isolated rat bladder strips from male Sprague-Dawley rats as previously described, (Wojdan, A., Freeden, C., Woods, M., Oshiro, G., Spinelli, W. et al., J Pharmacol Exp Therap 289: 1410–1418 (1999)) and precontracted them with 20 mM KCl. The KCNQ channel agonist retigabine, was added to the tissue bath in increasing concentrations, and area under the contraction curve was analyzed.
In another study, isolated rat bladder strips were precontracted with 60 mM KCl (FIG. 1).
The difference in IC50s between 20 and 60 mM KCl depolarizations are consistent with a potassium channel opening mechanism.
Rat bladder strips were isolated and prepared as previously described (Wojdan, A., Freeden, C., Woods, M., Oshiro, G., Spinelli, W. et al., J Pharmacol ExpTherap 289:1410–1418 (1999)). Preparations were contracted with either 20 or 60 mM KCl, or 200 nM carbachol. A five minute area under the contraction curve was acquired 20 minutes after addition of each concentration of retigabine using a 12 bit D/A and a 586 based personal computer running custom software. Message for KCNQ subunits was probed using quantitative rtPCR on an ABI PRISM 7700 Sequence Detection System (TAQMAN). Forward and reverse primers and TAQMAN probes were designed using published RNA sequences for human KCNQ1–5 and rat KCNQ 1–4 listed within the NCBI data base. Since no rat sequence for KCNQ5 were currently published, probes and primers were designed by BLAST analysis of rat Expressed Sequence Tags (EST) using the known mouse KNCQ5 sequence. From homologous EST sequences, a contiguous sequence of 384 base pairs was constructed. Probes and primers were designed against this sequence. BLAST analysis of our rat KCNQ5 probes and primer were selective for mouse and human KCNQ5 sequences. PCR products were confirmed by gel electrophoresis (data not shown). Cells for electrophysiology were prepared from rat bladder smooth muscle as previously described (Wojdan et al., 1999). Human bladder smooth muscle cells were obtained from Clonetics, San Diego, Calif. […]

Read-outs that look alike come from different tables or passages of the source.

Consider `CCOC(=O)Nc1ccc(NCc2ccc(F)cc2)cc1N` [retigabine, N-[2-amino-4-(4-fluorobenzylamino)-phenyl]carbamic acid ethyl ester], for which the hyperpolarization of cells in test [1] is on record as 11±1.1 mV. For the same compound, the half-maximal inhibitory concentration (IC50) (usually the midpoint of a concentration-inhibition curve) in test [2] (read-out: IC50 for inhibition of isolated rat bladder strip contractions, precontracted with 20 mM KCl, area under the contraction curve) was 1.4 ± 0.1 µM; in test [2] (read-out: IC50 for inhibition of isolated rat bladder strip contractions, precontracted with 60 mM KCl) it was 21.8 ± 0.8 µM.

The record behind these values is patent US7160684B2, “Methods of selecting compounds for modulation of bladder function” (Wyeth, priority 2000, dated 2007).
